≈ marks a conversion by molar mass, not a printed value.
Assays:
HeLaS₃ cells = assay: Growth inhibition test on HeLaS₃ cells (Neutral Red staining); assay type: cell-based; conditions: Homo sapiens, HeLa, 72 hours culture, absorbance 550 nm, read-out: HeLaS₃ IC₅₀
Experimental: HeLaS₃ cells suspended in MEM medium containing 10% fetal calf serum and 2 mM glutamine (hereinafter referred to as medium A) to a concentration of 3 × 10⁴ cells/ml were put into wells of a 96-well microtiter plate in an amount of 0.1 ml per well.
After culturing at 37°C overnight in a CO₂-incubator, 0.05 ml of a test sample appropriately diluted with medium A was added to each well.
The cells were further cultured at 37°C for 72 hours in the CO₂-incubator and the culture supernatant was removed. The residue was washed once with phosphate buffered physiological saline (PBS), and 0.1 ml of a medium containing medium A and 0.02% Neutral Red was added to each well, followed by culturing at 37°C for one hour in the CO₂-incubator to stain the cells. After removal of the culture supernatant, the cells were washed once with physiological saline, and the dye was extracted with 0.001N HCl/30% ethanol. Absorbance of the extract at 550 nm was measured with a microplate reader. By comparing the absorbance of the extract of intact cells with those of the cells treated with the test compound at known concentrations, the concentration of the test compound which inhibited growth of the cells by 50% (IC₅₀) was determined.

[1] = test system: Staphylococcus epidermidis S1318; assay: Antibacterial activity, agar dilution method; assay type: cell-based; conditions: pH 7.0
Experimental: (§1) Minimum inhibitory concentrations (MIC) of Compound (I) against various bacteria were determined by the agar dilution method (pH 7.0).

[2] = test system: Bacillus subtilis ATCC6633; assay: Antibacterial activity, agar dilution method; assay type: cell-based; conditions: pH 7.0
Experimental: as §1

[3] = test system: Micrococcus luteus ATCC9341; assay: Antibacterial activity, agar dilution method; assay type: cell-based; conditions: pH 7.0
Experimental: as §1

[4] = test system: Staphylococcus aureus 209-P; assay: Antibacterial activity, agar dilution method; assay type: cell-based; conditions: pH 7.0
Experimental: as §1

[5] = test system: Staphylococcus aureus 6538-P; assay: Antibacterial activity, agar dilution method; assay type: cell-based; conditions: pH 7.0
Experimental: as §1

Sarcoma 180 tumor = assay: Therapeutic effect against Sarcoma 180 tumor implanted subcutaneously in mice; assay type: in vivo, ddY-strain mice; conditions: Dose 0.70 mg/kg, intravenously, one day after implantation; tumor volume seven days after implantation
Experimental: Five male ddY-strain mice each weighing 18 to 20 g were used for each group as test animals, and 5 × 10⁵ Sarcoma 180 tumor cells were implanted subcutaneously into the animals at the axilla. One day after the implantation, 0.2 ml of physiological saline containing a test compound at the concentration indicated in Table 1 was intravenously administered to each mouse. T/C [T: average tumor volume (mm³) of the group treated with the test compound, C: that of the control group which received an intravenous administration of 0.2 ml of physiological saline] was determined seven days after the implantation.

[6] = Stability in solution for preparing a freeze-dried preparation (HPLC); assay type: physicochemical; conditions: for Residual Rate: 1 mg/ml in water with 50 mg lactose and 0.5 mg citric acid per ml, 25°C
Experimental: In 1 ml of distilled water was dissolved 50 mg of lactose and 0.5 mg of citric acid. Compound (I) or Compound (III) was dissolved in the solution to a concentration of 1 mg/ml. The test solution was poured in a vial, and kept in a thermostat at 25°C. The concentration of Compound (I) or Compound (III) in the solution was determined by High Performance Liquid Chromatography (HPLC) with the elapse of time. The concentration of each test compound in the test solution just after the dissolution was defined as 100 %. The residual rate (%) was calculated according to the following equation. [formula]

`COC(=O)c1c(C)[nH]c2c(OC(=O)N3CCN(C)CC3)cc3c(c12)C(CBr)CN3C(=O)c1cc2cc(OC)c(OC)c(OC)c2[nH]1` (centres unmarked) [Compound (I)] gave an IC50 (HeLaS₃ cells) of 31 nM, an MIC [1] of 6.25 µg/mL (≈ 8.95 µM) and an MIC [2] of 6.25 µg/mL (≈ 8.95 µM). The MIC [3] was 25 µg/mL (≈ 35.8 µM), the MIC [4] was 6.25 µg/mL (≈ 8.95 µM) and the MIC [5] was 6.25 µg/mL (≈ 8.95 µM). The “Sarcoma 180 T/C” value (Sarcoma 180 tumor) was 0.095, the “Residual Rate” value ([6]; Time 0 hr (defined as 100 %)) was 100% and the “Residual Rate” value ([6]; Time 3 hr) was 99%. The “Residual Rate” value ([6]; Time 6 hr) was 98% and the “stability in solution (in words)” value ([6]; compared with Compound (III), results of Table 3) was “improved stability in solution”.

Reference: patent EP0537575A1, “Hydrobromide of DC-89 derivative having antitumor activity” (KYOWA HAKKO KOGYO CO., LTD., priority 1991, dated 1993)
